In patent publication EP4332093A1, “SALT CONTAINING PIPERAZINE POLYCYCLIC DERIVATIVE, CRYSTAL FORM THEREOF, PREPARATION METHOD THEREFOR, AND USE THEREOF” (Shanghai Hansoh Biomedical Co., Ltd., priority 2021, dated 2022) one finds EC50, IC50 and solubility data, which are given here for 14 compounds.

One data set has as its target T1, D3 receptor (Homo sapiens, UniProt P35462).
T1 construct: expressed in transfected cells
Kind of data set: cAMP content in cells stably expressing D3 receptors (CHO-D3, forskolin, HTRF). In kind it is cell-based. The procedure:
Determination of the effect of the compounds of the present invention on cAMP content in cells stably expressing D3 receptors
To determine the activation effect of the compounds on D3 receptor.
• 1. Preparation of the buffer: 1* HBSS + 20mM HEPES + 0.1% BSA + 500 µM IBMX. Complete medium: Ham's F12K + 10% fetal bovine serum +1* penicillin-streptomycin + 400 µg/mL G418. • 2. CHO-D3 cells were cultured in the complete medium at 37°C, 5% CO2. After TrypLE digestion, the cells were resuspended in the experimental buffer, and seeded into a 384-well cell culture plate at a seeding density of 8000 cells per well. • 3. The experimental buffer (1*HBSS, 0.1% BSA, 20 mM HEPES and 500 µM IBMX) was prepared. The compound was diluted with the buffer. 2.5 µL of the compound solution was added to each well, and the plate was incubated at 37°C for 10 minutes. The forskolin was diluted to 8 µM (8*) with the experimental buffer. 2.5 µL of the diluted 8* forskolin was added, and the plate was incubated at 37°C for 30 minutes. cAMP-d2 and Anti-cAMP-Eu^3+ were thawed, and diluted by 20-fold with the lysis buffer. 10 µL of cAMP-d2 was added to the experimental well, followed by the addition of 10 µL of Anti-cAMP-Eu^3+. The reaction plate was centrifuged at 200 g for 30 s at room temperature, and left to stand at 25°C for 1 h. Data was collected using Envision.

For a further data set, the target named is 5-HT2A receptor (Homo sapiens, UniProt P28223). The data set is described as follows: Calcium ion mobility in cells stably expressing 5-HT2A receptors (Flp-In-CHO-5HT2A, FLIPR). The settings on record: Flp-In-CHO-5HT2A stable pool, 5HT stimulation. On the set-up: expressed in transfected cells. It is filed as cell-based. The procedure:
Determination of the effect of the compounds of the present invention on calcium ion mobility in cells stably expressing 5-HT2A receptors
To determine the inhibitory effect of the compounds on 5-HT2A receptor.
• 1) Preparation of the buffer: 1 x HBSS, 20 mM HEPES, 2.5 mM probenecid (probenecid was 400 mM stock in 1 M NaOH), 0.1% BSA. Probenecid and BSA were added fresh on the day of the experiment. Experimental buffers include dye buffer and compound dilution buffer. • 2) Cell culture medium: Ham's F-12K + 10% fetal bovine serum + 600 µg/ml hygromycin B + 1* penicillin-streptomycin. Seeding medium: Ham's F-12K + 10% dialysis serum; Assay buffer: 1 x HBSS + 20 mM HEPES; Cell line: Flp-In-CHO-5HT2A stable pool. • 3) The cells were cultured in the complete medium at 37°C, 5% CO2 to 70%-90% confluency. The cells were digested with TrypLE, seeded to the 384-well assay plate at a density of 1 × 10^4 cells/well, and incubated for 16 to 24 hours (at least overnight). • 4) 20X Component A was thawed to room temperature, diluted to 2X working concentration (containing 5mM Probenecid) with the assay buffer, and placed at room temperature for later use. • 5) The cell culture plate was taken out and left to stand at room temperature for 10 min. […] 10 µl of diluted 5HT was add to each experimental well using FLIPR Tetra, and the values were read.
The calcium signal values were determined by FLIPR. The calculated output for each sampling time point in the experiment was the ratio of the 340/510 nm wavelength signals to 380/510 nm wavelength signals. The maximum minus minimum calculation was derived from the ratio signal curve. The percent inhibition rate and ten-point concentration data were fitted to the parametric nonlinear logistic equation by using GraphPad prism to calculate the IC50 values of the compound.

Data set [1] is described as follows: Solubility of hydrochloride and free base in different media (37°C, 24 hours, HPLC). It is filed as physicochemical. Particulars: thermodynamic from solid. The procedure:
The glass bottle was shaken overnight on an electrothermal constant temperature shaking tank, and the temperature was set to 37°C. After 24 hours, the sample solution was filtered with a 0.45 µm mixed water fiber filter membrane, and the subsequent filtrate was taken to test its content by HPLC. HPLC detection methods are described in "Stability Study Conditions". Table 24 Solubility of hydrochloride and free base in different pH buffers

Structures are written as SMILES. In brackets after ≈: the same amount, converted by molar mass.

T1 sequence (P35462 whole entry): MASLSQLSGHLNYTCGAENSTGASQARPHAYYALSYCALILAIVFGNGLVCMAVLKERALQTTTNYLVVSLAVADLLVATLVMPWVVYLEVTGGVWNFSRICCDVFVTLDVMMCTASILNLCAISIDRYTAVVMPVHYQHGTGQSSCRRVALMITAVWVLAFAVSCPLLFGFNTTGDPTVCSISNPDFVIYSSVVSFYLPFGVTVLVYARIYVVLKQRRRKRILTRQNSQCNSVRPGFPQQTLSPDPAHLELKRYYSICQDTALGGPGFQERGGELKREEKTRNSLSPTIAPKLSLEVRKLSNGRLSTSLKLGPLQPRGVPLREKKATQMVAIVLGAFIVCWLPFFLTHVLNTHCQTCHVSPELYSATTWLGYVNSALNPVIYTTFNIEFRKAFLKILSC
Sequence of 5-HT2A receptor (P28223 whole entry): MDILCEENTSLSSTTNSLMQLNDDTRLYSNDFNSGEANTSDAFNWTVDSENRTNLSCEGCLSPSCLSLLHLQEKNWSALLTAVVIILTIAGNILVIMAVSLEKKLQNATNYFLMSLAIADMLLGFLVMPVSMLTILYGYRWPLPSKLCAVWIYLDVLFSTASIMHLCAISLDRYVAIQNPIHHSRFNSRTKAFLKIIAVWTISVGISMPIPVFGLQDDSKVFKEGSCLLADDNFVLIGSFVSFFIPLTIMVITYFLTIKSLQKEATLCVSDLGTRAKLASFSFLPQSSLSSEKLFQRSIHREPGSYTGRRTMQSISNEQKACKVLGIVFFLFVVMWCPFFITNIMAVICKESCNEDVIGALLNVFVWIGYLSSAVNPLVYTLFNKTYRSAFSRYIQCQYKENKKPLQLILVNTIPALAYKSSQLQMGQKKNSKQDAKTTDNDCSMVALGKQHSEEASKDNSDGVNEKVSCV

`Cc1cnoc1C(=O)NC1CC(CCN2CCN(c3cccc(Cl)c3Cl)CC2)C1` (stereo not shown) [Example 13, N-(3-(2-(4-(2,3-Dichlorophenyl)piperazin-1-yl)ethyl)cyclobutyl)-4-methylisoxazole-5-carboxamide] gave an EC50 at D3 receptor of 3.4 nM. Moreover, the IC50 on 5-HT2A receptor was 10.9 nM.

On to `O=C(NC1CC(CCN2CCN(c3cccc(Cl)c3Cl)CC2)C1)c1ccno1` (stereo not shown) [Example 15, N-(3-(2-(4-(2,3-Dichlorophenyl)piperazin-1-yl)ethyl)cyclobutyl)isoxazole-5-carboxamide], for which a half-maximal response at D3 receptor (EC50) required 1.7 nM. At 5-HT2A receptor, the IC50 is 8.06 nM.

Compound `N#CC1(C(=O)NC2CC(CCN3CCN(c4cccc(Cl)c4Cl)CC3)C2)CC1` (stereo not shown) [Example 21, 1-Cyano-N-(3-(2-(4-(2,3-dichlorophenyl)piperazin-1-yl)ethyl)cyclobutyl)cyclopropane-1-carboxamide] yielded an EC50 at D3 receptor of 3.3 nM. Moreover, the IC50 at 5-HT2A receptor came to 33.5 nM.

Compound `Cc1cc(C(=O)NC2CC(CCN3CCN(c4cccc(Cl)c4Cl)CC3)C2)on1` (stereo not shown) [Example 14, N-(3-(2-(4-(2,3-Dichlorophenyl)piperazin-1-yl)ethyl)cyclobutyl)-3-methylisoxazole-5-carboxamide] showed an EC50 at D3 receptor of 1.2 nM. On 5-HT2A receptor, the half-maximal inhibitory concentration (IC50) amounted to 13.4 nM.

For the compound `COCC(=O)NC1CC(CCN2CCN(c3cccc(Cl)c3Cl)CC2)C1` (stereo not shown) [Example 2, N-(3-(2-(4-(2,3-Dichlorophenyl)piperazin-1-yl)ethyl)cyclobutyl)-2-methoxyacetamide], at D3 receptor, it took 2.2 nM to reach a half-maximal effect (EC50). For the same compound, the half-maximal inhibitory concentration (IC50) at 5-HT2A receptor was found to be 16.7 nM.

`O=C(NC1CC(CCN2CCN(c3cccc(Cl)c3Cl)CC2)C1)c1cccc2ncccc12` (stereo not shown) [Example 19, N-(3-(2-(4-(2,3-Dichlorophenyl)piperazin-1-yl)ethyl)cyclobutyl)quinoline-5-carbox amide]: the midpoint of the response on D3 receptor, the EC50, lay at 1 nM. On 5-HT2A receptor, the IC50 stood at 7.37 nM.

As for `O=C(NC1CC(CCN2CCN(c3cccc(Cl)c3Cl)CC2)C1)c1ccon1` (stereo not shown) [Example 17, N-(3-(2-(4-(2,3-Dichlorophenyl)piperazin-1-yl)ethyl)cyclobutyl)isoxazole-3-carboxamide], at D3 receptor, the EC50 turned out to be 3.1 nM. For the same compound, on 5-HT2A receptor, the IC50 is 8.92 nM.

Compound `COC1CN(C(=O)NC2CC(CCN3CCN(c4cccc(Cl)c4Cl)CC3)C2)C1` (stereo not shown) [Example 5, N-(3-(2-(4-(2,3-Dichlorophenyl)piperazin-1-yl)ethyl)cyclobutyl)-3-methoxyazetidine-1-carboxamide] yielded an EC50 at D3 receptor of 2.4 nM. Further, the IC50 on 5-HT2A receptor came to 22.1 nM.

`Cc1cc(CC(=O)NC2CC(CCN3CCN(c4cccc(Cl)c4Cl)CC3)C2)on1` (stereo not shown) [Example 10, N-(3-(2-(4-(2,3-Dichlorophenyl)piperazin-1-yl)ethyl)cyclobutyl)-2-(3-methylisoxazol-5-yl)acetamide] displayed an EC50 at D3 receptor of 1.2 nM. For the same compound, the IC50 at 5-HT2A receptor came out at 8.9 nM.

In turn, `Cc1ncc(C(=O)NC2CC(CCN3CCN(c4cccc(Cl)c4Cl)CC3)C2)o1` (stereo not shown) [Example 16, N-(3-(2-(4-(2,3-Dichlorophenyl)piperazin-1-yl)ethyl)cyclobutyl)-2-methyloxazole-5-carboxamide] displayed an EC50 at D3 receptor of 0.7 nM. On 5-HT2A receptor, the IC50 was 5.78 nM.

`Cc1ccc(C(=O)NC2CC(CCN3CCN(c4cccc(Cl)c4Cl)CC3)C2)o1` (stereo not shown) [Example 1, N-(3-(2-(4-(2,3-Dichlorophenyl)piperazin-1-yl)ethyl)cyclobutyl)-5-methylfuran-2-c arboxamide] had an EC50 on D3 receptor of 3.5 nM. The IC50 at 5-HT2A receptor amounted to 8.08 nM.

At D3 receptor, `Cc1nc(C(=O)NC2CC(CCN3CCN(c4cccc(Cl)c4Cl)CC3)C2)co1` (stereo not shown) [Example 18, N-(3-(2-(4-(2,3-Dichlorophenyl)piperazin-1-yl)ethyl)cyclobutyl)-2-methyloxazole-4-carboxamide] gave an EC50 of 3.9 nM. Moreover, at 5-HT2A receptor, the IC50 was 6.4 nM.

`O=C(NC1CC(CCN2CCN(c3cccc(Cl)c3Cl)CC2)C1)c1cccnc1` (stereo not shown) [Example 3, N-(3-(2-(4-(2,3-Dichlorophenyl)piperazin-1-yl)ethyl)cyclobutyl)nicotinamide]: the EC50 at D3 receptor stood at 1.2 nM. The half-maximal inhibitory concentration (IC50) at 5-HT2A receptor came to 48 nM.

On to `O=C(N[C@H]1C[C@H](CCN2CCN(c3cccc(Cl)c3Cl)CC2)C1)c1ncco1` [crystal form B of free base], for which the solubility at 24 h in data set [1] (aqueous buffer, Buffer pH 3) is more than 1000 µg/mL; in data set [1] (aqueous buffer, Buffer pH 4), more than 1000 µg/mL; in data set [1] (aqueous buffer, Buffer pH 5) it was more than 1000 µg/mL; in data set [1] (aqueous buffer, Buffer pH 6) it was 388 µg/mL (≈ 917 µM); in data set [1] (aqueous buffer, Buffer pH 7), 44 µg/mL (≈ 104 µM); in data set [1] (aqueous buffer, Buffer pH 8), 2 µg/mL (≈ 4.72 µM). Moreover, the solubility at 24 h in data set [1] (fassgf or other biorelevant, FaSSCoF) was more than 1000 µg/mL; in data set [1] (fassgf or other biorelevant, FaSSGF) it was 154 µg/mL (≈ 364 µM); in data set [1] (fassgf or other biorelevant, FeSSCoF), more than 1000 µg/mL; in data set [1] (simulated gastric fluid, Buffer pH 1), more than 1000 µg/mL; in data set [1] (simulated gastric fluid, Buffer pH 2), more than 1000 µg/mL; in data set [1] (FaSSIF), more than 1000 µg/mL. Moreover, the solubility at 24 h in data set [1] (FeSSIF) is more than 1000 µg/mL; in data set [1] (water, H2O), 125 µg/mL (≈ 295 µM).
